Measurements reported in PubChem BioAssay AID743186 (Broad Institute, 2013).
The source made the active and inactive calls. How the calls were made is not given here.

System: not listed separately
Test: Confirmatory dose response, tuberculosis growth inhibitors, OD600 plate reader (AID 743186)
Conditions: Mycobacterium tuberculosis growth, OD600; at 6 µM (top of the series)

SMILES	growth change, negative = inhibition
CCc1ccc(OCCCC(=O)NCc2ccco2)cc1	2.01% (inactive)
O=C(OCc1ccc(Cl)c(Cl)c1)c1ccccn1	-2.92% (inactive)
CCOC(=O)COc1ccc2c(=O)cc(-c3ccccc3)oc2c1	-72.2% (inactive)
NC(=O)COc1ccc2cc(-c3ccc(F)cc3)c(=O)oc2c1	0.842% (inactive)
CCOC(=O)c1c(C)n(C)c2ccc(OC(C)C(=O)OC)cc12 (stereo unspecified)	-3.72% (inactive)
CCCOC(=O)c1ccc(NC(=O)c2ccc(Br)o2)cc1	4.84% (inactive)
NC(=O)C1(N2CCCCC2)CCN(C2CC(=O)N(CCc3ccccc3)C2=O)CC1 (stereo unspecified)	12.1% (inactive)
Clc1cccc(-c2ccc(CNCc3ccccn3)o2)c1	-12.5% (inactive)
O=C(COc1c(Br)cc(Br)c2cccnc12)N1CCCCC1	-5.71% (inactive)
CCOC(=O)COc1ccc2c(c1)C(=O)CC1(CCCCC1)O2	-49.6% (inactive)
CCCC(C)C(=O)Nc1ccc(Cl)cn1 (stereo unspecified)	-8.24% (inactive)
O=C(COc1cccc2ccccc12)Nc1nc2ccccc2[nH]1	3.31% (inactive)
O=C(NC1CC2CCC1C2)C1COc2ccccc2O1 (stereo unspecified)	-8.57% (inactive)
CCOC(=O)c1sc(NC(=O)CCN2CCOCC2)c(C(=O)OCC)c1C	2.46% (inactive)
O=C(CCN1CCC(c2cccs2)=N1)c1cccs1	-5.74% (inactive)
CCOC(=O)COc1ccc2c(=O)c(-c3ccccc3)coc2c1	-66.9% (inactive)
O=C(OCCCCN1C(=O)c2ccccc2C1=O)c1ccc(Br)o1	1.08% (inactive)
CC(=O)c1ccc(NC(=O)c2cc(CC(C)C)on2)cc1	-8.04% (inactive)
Fc1ccc(-c2ccc(CNCc3ccccn3)o2)cc1Cl	-11.2% (inactive)

System: Mycobacterium tuberculosis growth, OD600
Test: as above
Conditions: not given

SMILES	AC90
C=CCn1c(NC(=O)c2ccccc2)nc2ccccc21	> 6 µM (inactive)
Brc1c(-c2ccc3c(c2)OCO3)nc2ncccn12	5.4 µM
O=C(NCc1cccs1)c1ccc(Br)o1	> 6 µM (inactive)
O=C(Nc1nc2ccccc2[nH]1)c1cccc(Cl)c1	> 6 µM (inactive)
Cc1cccc(C)c1N1C(=O)CC(N2CCSCC2)C1=O (stereo unspecified)	> 6 µM (inactive)
CS(=O)(=O)Cc1nc2ccccc2oc1=O	> 6 µM (inactive)
Cc1cc(NC(=O)C2CCCCC2)n(-c2nc3ccccc3[nH]2)n1	> 6 µM (inactive)
Cc1nnc(NC(=O)c2ccc3ccccc3c2)o1	2.96 µM
Cc1cc(C)n2nc(S(=O)(=O)Nc3c(Cl)cccc3Cl)nc2n1	3.89 µM
CCCCN(C/C=C/c1ccccc1OC)Cc1ccccc1	> 6 µM (inactive)
Cc1cccc(Cn2ccc(NC(=O)c3ccc4c(c3)OCO4)n2)c1	1.67 µM
Cc1ccc(C)c(-c2csc(NC(=O)c3cnccn3)n2)c1	> 6 µM (inactive)
COC(=O)COc1cccc(NC(=O)c2ccc(Cl)cc2)c1	> 6 µM (inactive)
c1ccc(Nc2nc(-c3ccccn3)cs2)cc1	> 6 µM (inactive)
Clc1cccc(CNCCNCc2cccc(Cl)c2)c1	> 6 µM (inactive)
NC1CCN(c2c(F)cc3c(=O)c(C(=O)O)cn(C4CC4)c3c2Cl)C1 (stereo unspecified)	0.176 µM
COC(=O)COc1ccc2c(=O)c(Oc3ccccc3)c(C)oc2c1	> 6 µM (inactive)
